Patent US20060263802A1 (priority 2003, published 2006)

Key:
Assay type in all cases: binding
[1] = test system: human monoclonal antibody CRJB
[2] = test system: human monoclonal antibody CR57
[3] = test system: human monoclonal antibody CRJA
[4] = test system: human monoclonal antibody CRJB; remark: listed apart in the source
[5] = test system: human monoclonal antibody CR57; remark: listed apart in the source
[6] = test system: human monoclonal antibody CRJA; remark: listed apart in the source

Sequence | Binding of CRJB to linear peptide (PEPSCAN-ELISA signal) [1] | Binding of CR57 to linear peptide (PEPSCAN-ELISA signal) [2] | Binding of CRJA to linear peptide (PEPSCAN-ELISA signal) [3] | Binding of CRJB (10 μg/ml) to looped/cyclic peptide (PEPSCAN-ELISA) [4] | Binding of CR57 (10 μg/ml) to looped/cyclic peptide (PEPSCAN-ELISA) [5] | Binding of CRJA (10 μg/ml) to looped/cyclic peptide (PEPSCAN-ELISA) [6] | Binding of CRJB (10 μg/ml) to looped/cyclic peptide (PEPSCAN-ELISA signal) [4] | Binding of CR57 (10 μg/ml) to looped/cyclic peptide (PEPSCAN-ELISA signal) [5] | Binding of CRJA (10 μg/ml) to looped/cyclic peptide (PEPSCAN-ELISA signal) [6]
TCGFVDERGLYKSLK | 120 | 47 | 104 | 79 | 84 | 100 |  |  | 
WSPIDIHHLSCPNNL | 106 | 80 | 83 |  |  |  | 92 | 89 | 151
VGGRCHPHVNGVFFN | 136 | 120 | 92 | 64 | 143 | 106 |  |  | 
MNGFTCTGVVTEAEN | 99 | 69 | 87 |  |  |  | 118 | 85 | 78
RSDEIEHLVVEELVR | 138 | 100 | 93 | 93 | 136 | 107 |  |  | 
RLMDGTWVAMQTSNE | 113 | 100 | 99 | 89 | 96 | 82 |  |  | 
EILPSKGCLRVGGRC | 112 | 104 | 106 | 97 | 132 | 111 |  |  | 
NPRLGMSCDIFTNSR | 113 | 90 | 82 |  |  |  | 101 | 78 | 91
HYKSVRTWNEILPSK | 130 | 80 | 87 | 101 | 112 | 100 |  |  | 
QHMELLESSVIPLVH | 146 | 98 | 87 | 97 | 132 | 111 |  |  | 
KGSETCGFVDERGLY | 97 | 90 | 100 | 72 | 111 | 71 |  |  | 
GFGKAYTIFNKTLME | 123 | 78 | 98 | 83 | 94 | 86 |  |  | 
LMDGTWVAMQTSNET | 106 | 96 | 102 | 76 | 106 | 92 |  |  | 
GSETCGFVDERGLYK | 115 | 57 | 56 | 71 | 64 | 64 |  |  | 
LVIISPSVADLDPYD | 107 | 85 | 104 |  |  |  | 102 | 98 | 117
IDIHHLSCPNNLVVE | 102 | 69 | 61 |  |  |  | 59 | 55 | 55
PENPRLGMSCDIFTN | 111 | 83 | 94 |  |  |  | 98 | 116 | 83
EMQSSLLQQHMELLE | 129 | 58 | 94 | 98 | 78 | 88 |  |  | 
